From patent publication US20080004253A1, “Thiazolopyrimidine modulators of TRPV1” (priority 2006, published 2008)

Columns and labels:
[1] = molecular target: T1, human TRPV1 (Homo sapiens, UniProt Q8NER1); assay: Functional assay: block of capsaicin-induced Ca2+ influx, human assay (hTRPV1/HEK293, FLIPR); type: cell-based; conditions: hTRPV1/HEK293 cells, 150 nM capsaicin challenge, Fluo-3 fluorescence; mean; > value = solubility limit in assay medium
T1 construct: expressed in transfected cells; host or cells: HEK293 (hTRPV1/HEK293), zeocin selection
Outline: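 HEK293 cells stably expressing human TRPV1, fluo3-loaded, preincubated 30 min with compound (serial 3-fold dilutions from 10 μM, duplicate) in 20 μM Ca2+ buffer. Capsaicin response taken as fluo3 fluorescence change before vs 100 s after agonist; IC50 by non-linear regression, mean values; free base or TFA salt.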

[2] = molecular target: T2, rat TRPV1 (Rattus norvegicus, UniProt O35433); assay: Functional assay: block of capsaicin-induced Ca2+ influx, rat assay (rTRPV1/HEK293, FLIPR); type: cell-based; conditions: rTRPV1/HEK293 cells, capsaicin challenge, Fluo-3 fluorescence; mean; > value = solubility limit in assay medium
T2 construct: expressed in transfected cells; host or cells: HEK293 (rTRPV1/HEK293), geneticin selection
Outline: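 Compounds, as free base or TFA salt, tested from 10 μM in three-fold steps on rTRPV1-transfected HEK293 cells, with 30 min preincubation in low-calcium (20 μM) buffer. Capsaicin-evoked Ca2+ influx measured by FLIPR fluo3 signal before and 100 s after addition. Averaged IC50 from non-linear fits.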

T2 sequence (O35433 whole entry): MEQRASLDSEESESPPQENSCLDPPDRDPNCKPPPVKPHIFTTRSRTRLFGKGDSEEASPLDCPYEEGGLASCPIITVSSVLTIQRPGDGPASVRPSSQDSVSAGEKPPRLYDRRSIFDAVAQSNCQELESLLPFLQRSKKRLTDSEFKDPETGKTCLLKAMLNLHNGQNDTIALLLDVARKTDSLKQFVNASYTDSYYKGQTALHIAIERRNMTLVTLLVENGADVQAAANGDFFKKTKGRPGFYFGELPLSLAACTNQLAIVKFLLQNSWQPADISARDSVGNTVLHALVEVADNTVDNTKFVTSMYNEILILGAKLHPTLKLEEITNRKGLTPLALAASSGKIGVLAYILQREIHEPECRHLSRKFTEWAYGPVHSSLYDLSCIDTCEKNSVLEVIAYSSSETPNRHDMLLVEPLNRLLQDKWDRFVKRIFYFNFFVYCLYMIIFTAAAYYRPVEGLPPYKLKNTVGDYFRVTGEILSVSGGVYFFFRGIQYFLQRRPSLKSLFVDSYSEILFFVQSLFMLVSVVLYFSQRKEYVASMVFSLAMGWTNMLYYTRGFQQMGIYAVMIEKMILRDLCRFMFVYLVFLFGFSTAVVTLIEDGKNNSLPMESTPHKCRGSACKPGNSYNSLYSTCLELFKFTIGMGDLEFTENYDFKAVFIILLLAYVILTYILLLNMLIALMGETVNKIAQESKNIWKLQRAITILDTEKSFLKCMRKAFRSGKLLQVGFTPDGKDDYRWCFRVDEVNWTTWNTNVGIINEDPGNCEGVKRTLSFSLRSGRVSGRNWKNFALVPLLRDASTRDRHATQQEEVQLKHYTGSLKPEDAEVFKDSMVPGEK
T1 sequence (Q8NER1 whole entry): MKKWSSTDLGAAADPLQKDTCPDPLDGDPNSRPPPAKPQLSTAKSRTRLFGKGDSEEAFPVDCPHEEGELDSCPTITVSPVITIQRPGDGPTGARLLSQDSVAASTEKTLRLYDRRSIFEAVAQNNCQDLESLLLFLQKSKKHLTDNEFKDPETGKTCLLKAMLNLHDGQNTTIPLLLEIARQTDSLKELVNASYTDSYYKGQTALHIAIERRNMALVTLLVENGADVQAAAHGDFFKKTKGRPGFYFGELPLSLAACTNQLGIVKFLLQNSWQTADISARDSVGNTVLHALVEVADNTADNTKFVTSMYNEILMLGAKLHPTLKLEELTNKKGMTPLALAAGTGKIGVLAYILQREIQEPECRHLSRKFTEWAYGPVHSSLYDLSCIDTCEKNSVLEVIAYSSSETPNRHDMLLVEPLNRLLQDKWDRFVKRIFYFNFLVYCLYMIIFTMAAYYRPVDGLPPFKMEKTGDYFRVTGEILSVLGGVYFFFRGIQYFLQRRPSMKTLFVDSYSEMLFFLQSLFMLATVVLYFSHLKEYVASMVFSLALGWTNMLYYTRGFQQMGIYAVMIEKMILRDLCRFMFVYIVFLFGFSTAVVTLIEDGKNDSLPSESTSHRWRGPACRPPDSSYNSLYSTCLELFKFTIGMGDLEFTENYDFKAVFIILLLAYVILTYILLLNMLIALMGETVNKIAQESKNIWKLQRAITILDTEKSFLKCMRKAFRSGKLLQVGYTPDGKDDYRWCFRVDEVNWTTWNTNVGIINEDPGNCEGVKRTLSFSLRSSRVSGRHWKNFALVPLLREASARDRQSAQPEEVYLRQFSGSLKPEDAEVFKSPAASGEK

Compound	IC50 [1] [nM]	IC50 [2] [nM]
Cc1ccc(Nc2ncnc3sc(Nc4c(C)cccc4C)nc23)cc1F [Example 148, N^2-(2,6-Dimethyl-phenyl)-N^7-(3-fluoro-4-methyl-phenyl)-thiazolo[5,4-d]pyrimidine-2,7-diamine]	735	126
Cc1nc(Nc2ccccc2)c2nc(Nc3c(C)cccc3C)sc2n1 [Example 141, N^2-(2,6-Dimethyl-phenyl)-5-methyl-N^7-phenyl-thiazolo[5,4-d]pyrimidine-2,7-diamine]	350	223
COC(=O)c1scc(C)c1Nc1nc2c(Nc3ccc(C(F)(F)F)nc3)ncnc2s1 [Example 49, 4-Methyl-3-[7-(6-trifluoromethyl-pyridin-3-ylamino)-thiazolo[5,4-d]pyrimidin-2-ylamino]-thiophene-2-carboxylic acid methyl ester]	375	431
Cc1noc(C)c1Nc1nc2c(Nc3ccc(C(F)(F)F)c(Cl)c3)ncnc2s1 [Example 50, N^7-(3-Chloro-4-trifluoromethyl-phenyl)-N^2-(3,5-dimethyl-isoxazol-4-yl)thiazolo[5,4d]pyrimidine-2,7-diamine]	> 6670	> 6670
Oc1ccc(Nc2ncnc3sc(Nc4c(Cl)cccc4Cl)nc23)cc1O [Example 227, 4-({2-[(2,6-Dichlorophenyl)amino][1,3]thiazolo[5,4-d]pyrimidin-7-yl}amino)benzene-1,2-diol]	> 6670	> 6670
Cc1cccc(C)c1Nc1nc2c(Nc3ccc(S(N)(=O)=O)cc3)ncnc2s1 [Example 44, 4-[2-(2,6-Dimethyl-phenylamino)-thiazolo[5,4-d]pyrimidin-7-ylamino]-benzenesulfonamide]	14700	3620
Cc1ccc(Nc2ncnc3sc(Nc4c(C)cccc4C)nc23)cc1C [Example 165, N^2-(2,6-Dimethyl-phenyl)-N^7-(3,4-dimethyl-phenyl)-thiazolo[5,4-d]pyrimidine-2,7-diamine]	> 6670	> 6670
Cc1cccc(C)c1Nc1nc2c(Nc3ccc4c(c3)OCCO4)ncnc2s1 [Example 150, N^7-(2,3-Dihydro-benzo[1,4]dioxin-6-yl)-N^2-(2,6-dimethyl-phenyl)-thiazolo[5,4-d]pyrimidine-2,7-diamine]	937	204
FC(F)(F)c1ccc(Nc2nc3c(Nc4ccc(C(F)(F)F)cc4)ncnc3s2)cc1 [Example 22, N^2,N^7-Bis-(4-trifluoromethyl-phenyl)-thiazolo[5,4-d]pyrimidine-2,7-diamine]	> 6670	1690
FC(F)(F)c1ccc(Nc2ncnc3sc(Nc4c(Cl)cncc4Cl)nc23)cc1 [Example 72, N^2-(3,5-Dichloro-pyridin-4-yl)-N^7-(4-trifluoromethyl-phenyl)-thiazolo[5,4-d]pyrimidine-2,7-diamine]	740	627
Cc1noc(C)c1Nc1nc2c(Nc3ccc(C(F)(F)F)nc3)ncnc2s1 [Example 24, N^2-(3,5-Dimethyl-isoxazol-4-yl)-N^7-(6-trifluoromethyl-pyridin-3-yl)-thiazolo[5,4-d]pyrimidine-2,7-diamine]	2360	709
Cc1nc(Nc2ccc(N(C)S(C)(=O)=O)cc2)c2nc(Nc3c(Cl)cccc3Cl)sc2n1 [Example 152, N-{4-[2-(2,6-Dichloro-phenylamino)-5-methyl-thiazolo[5,4-d]pyrimidin-7-ylamino]-phenyl}-N-methyl-methanesulfonamide]	1220	205
Cc1cccc(C)c1Nc1nc2c(NC3CCC(C(C)(C)C)CC3)ncnc2s1 (single isomer, unassigned) [Example 248, N^7-(4-tert-Butyl-cyclohexyl)-N^2-(2,6-dimethyl-phenyl)-thiazolo[5,4-d]pyrimidine-2,7-diamine]	1100	240

Molecules with a lower IC50 [1], results first:

IC50 [1] [nM]	IC50 [2] [nM]	Compound
31	10	Cc1ccc(Nc2ncnc3sc(Nc4c(C)cccc4C)nc23)cc1 [Example 35, N^2-(2,6-Dimethyl-phenyl)-N^7-p-tolyl-thiazolo[5,4-d]pyrimidine-2,7-diamine]
207	202	COC(=O)c1scc(C)c1Nc1nc2c(Nc3ccc(C(F)(F)F)cc3)ncnc2s1 [Example 48, 4-Methyl-3-[7-(4-trifluoromethyl-phenylamino)-thiazolo[5,4-d]pyrimidin-2-ylamino]-thiophene-2-carboxylic acid methyl ester]
159	12	CC1CCCCN1c1nc(Nc2ccc(S(C)(=O)=O)cc2)c2nc(Nc3c(Cl)cccc3Cl)sc2n1 (racemic) [Example 179, (racemic)-N^2-(2,6-Dichloro-phenyl)-N^7-(4-methanesulfonyl-phenyl)-5-(2-methyl-piperidin-1-yl)-thiazolo[5,4-d]pyrimidine-2,7-diamine]
205	70	COc1ccc(Nc2ncnc3sc(Nc4c(C)cccc4C)nc23)cc1 [Example 33, N^2-(2,6-Dimethyl-phenyl)-N^7-(4-methoxy-phenyl)-thiazolo[5,4-d]pyrimidine-2,7-diamine]
138	121	CC(=O)c1ccc(Nc2ncnc3sc(Nc4c(C)cccc4C)nc23)cc1 [Example 128, 1-{4-[2-(2,6-Dimethyl-phenylamino)-thiazolo[5,4-d]pyrimidin-7-ylamino]-phenyl}-ethanone]
223	34	Cc1noc(C)c1Nc1nc2c(Nc3ccc(C(C)(C)C)cc3)ncnc2s1 [Example 51, N^7-(4-tert-Butyl-phenyl)-N^2-(3,5-dimethyl-isoxazol-4-yl)-thiazolo[5,4-d]pyrimidine-2,7-diamine]
312	287	Cc1nc(Nc2ccc(C(F)(F)F)cc2)c2nc(Nc3ccccc3S(C)(=O)=O)sc2n1 [Example 197, N^2-(2-Methanesulfonyl-phenyl)-5-methyl-N^7-(4-trifluoromethylphenyl)-thiazolo[5,4-d]pyrimidine-2,7-diamine]
25	2	Cc1nc(Nc2ccc3c(c2)N(C)CCC3(C)C)c2nc(Nc3c(Cl)cccc3Cl)sc2n1 [Example 107, N^2-(2,6-Dichloro-phenyl)-5-methyl-N^7-(1,4,4-trimethyl-1,2,3,4-tetrahydro-quinolin-7-yl)-thiazolo[5,4-d]pyrimidine-2,7-diamine]
36	16	Cc1nc(Nc2ccc(OC(F)(F)F)cc2)c2nc(Nc3c(Cl)cccc3Cl)sc2n1 [Example 111, N^2-(2,6-Dichloro-phenyl)-5-methyl-N^7-(4-trifluoromethoxy-phenyl)-thiazolo[5,4-d]pyrimidine-2,7-diamine]
225	83	FC(F)(F)c1ccc(Nc2nc(-c3ccccc3)nc3sc(Nc4c(Cl)cccc4Cl)nc23)cc1 [Example 70, N^2-(2,6-Dichloro-phenyl)-5-phenyl-N^7-(4-trifluoromethyl-phenyl)-thiazolo[5,4-d]pyrimidine-2,7-diamine]
172	73	Cc1cccc(C)c1Nc1nc2c(Nc3ccc(Cl)cc3)ncnc2s1 [Example 132, N^7-(4-Chloro-phenyl)-N^2-(2,6-dimethyl-phenyl)-thiazolo[5,4-d]pyrimidine-2,7-diamine]
41	17	FC(F)(F)c1ccc(Nc2nc(N3CCOCC3)nc3sc(Nc4c(Cl)cccc4Cl)nc23)cc1 [Example 64, N^2-(2,6-Dichloro-phenyl)-5-morpholin-4-yl-N^7-(4-trifluoromethyl-phenyl)-thiazolo[5,4-d]pyrimidine-2,7-diamine]
70	37	CCc1ccc(Nc2ncnc3sc(Nc4c(C)cccc4C)nc23)cc1 [Example 45, N^2-(2,6-Dimethyl-phenyl)-N^7-(4-ethyl-phenyl)-thiazolo[5,4-d]pyrimidine-2,7-diamine]
2	2	Cc1nc(Nc2ccc(S(=O)(=O)N(C)C)cc2)c2nc(Nc3c(Cl)cccc3Cl)sc2n1 [Example 81, 4-[2-(2,6-Dichloro-phenylamino)-5-methyl-thiazolo[5,4-d]pyrimidin-7-ylamino]-N,N-dimethyl-benzenesulfonamide]
91	25	Cc1nc(Nc2ccc(C(F)(F)F)cc2)c2nc(Nc3c(-c4ccccc4)noc3C)sc2n1 [Example 27, 5-Methyl-N^2-(5-methyl-3-phenyl-isoxazol-4-yl)-N^7-(4-trifluoromethyl-phenyl)-thiazolo[5,4-d]pyrimidine-2,7-diamine]
12	3	Cc1nc(Nc2ccc(C(C)(C)C)cc2)c2nc(Nc3c(C)cccc3C)sc2n1 [Example 244, N^7-(4-tert-Butyl-phenyl)-N^2-(2,6-dimethyl-phenyl)-5-methyl-thiazolo[5,4-d]pyrimidine-2,7-diamine]
92	39	FC(F)(F)c1ccc(Nc2ncnc3sc(Nc4ccccc4Cl)nc23)cc1 [Example 16, N^2-(2-Chloro-phenyl)-N^7-(4-trifluoromethyl-phenyl)-thiazolo[5,4-d]pyrimidine-2,7-diamine]
56	18	CC(C)C1CCCN1c1nc(Nc2ccc(C(F)(F)F)c(Cl)c2)c2nc(Nc3c(Cl)cccc3Cl)sc2n1 (racemic) [Example 118, (racemic)-N^7-(3-Chloro-4-trifluoromethyl-phenyl)-N^2-(2,6-dichloro-phenyl)-5-(2-isopropyl-pyrrolidin-1-yl)-thiazolo[5,4-d]pyrimidine-2,7-diamine]
